Tests used:
[1] = Drug uptake in anesthetized cynomolgus monkey brain cerebellum after 35 mins postinjection; format: ADME, organism-based, Macaca fascicularis; conditions: in vivo
[2] = Drug uptake in anesthetized cynomolgus monkey brain frontal lobe after 0.5 mins postinjection; format: ADME, organism-based, Macaca fascicularis; conditions: in vivo
Medulla [3] = assay: Drug uptake in anesthetized cynomolgus monkey brain medulla after 45 mins postinjection; format: ADME, organism-based, Macaca fascicularis; conditions: in vivo, 0.75 h
Thalamus [4] = assay: Drug uptake in anesthetized cynomolgus monkey brain thalamus after 6.5 mins postinjection; format: ADME, organism-based, Macaca fascicularis; set-up: unit not given here; conditions: in vivo
Midbrain [5] = assay: Drug uptake in anesthetized cynomolgus monkey brain midbrain after 15.5 mins postinjection; format: ADME, organism-based, Macaca fascicularis; set-up: unit not given here; conditions: in vivo
Midbrain [6] = assay: Drug uptake in anesthetized cynomolgus monkey brain midbrain after 115 mins postinjection; format: ADME, organism-based, Macaca fascicularis; set-up: unit not given here; conditions: in vivo
Midbrain [7] = assay: Drug uptake in anesthetized cynomolgus monkey brain midbrain after 95 mins postinjection; format: ADME, organism-based, Macaca fascicularis; set-up: unit not given here; conditions: in vivo
Caudate [8] = assay: Drug uptake in anesthetized cynomolgus monkey brain caudate after 235 mins postinjection; format: ADME, organism-based, Macaca fascicularis, Caudate nucleus; conditions: in vivo
[9] = Drug uptake in anesthetized cynomolgus monkey brain cerebellum after 165 mins postinjection; format: ADME, organism-based, Macaca fascicularis; conditions: in vivo, 2.75 h
Caudate [10] = assay: Drug uptake in anesthetized cynomolgus monkey brain caudate after 15.5 mins postinjection; format: ADME, organism-based, Macaca fascicularis, Caudate nucleus; conditions: in vivo
[11] = Drug uptake in anesthetized cynomolgus monkey brain occipital lobe after 22.5 mins postinjection; format: ADME, organism-based, Macaca fascicularis; conditions: in vivo, 0.375 h
[12] = Ratio of drug uptake in frontal lobe to cerebellum in anesthetized cynomolgus monkey after 3.5 mins postinjection; format: ADME, organism-based, Macaca fascicularis; conditions: in vivo
Putamen [13] = assay: Drug uptake in anesthetized cynomolgus monkey brain putamen after 205 mins postinjection; format: ADME, organism-based, Macaca fascicularis; conditions: in vivo
[14] = Drug uptake in anesthetized cynomolgus monkey brain occipital lobe after 27.5 mins postinjection; format: ADME, organism-based, Macaca fascicularis; conditions: in vivo
Putamen [15] = assay: Drug uptake in anesthetized cynomolgus monkey brain putamen after 15.5 mins postinjection; format: ADME, organism-based, Macaca fascicularis; set-up: unit not given here; conditions: in vivo
Thalamus [16] = assay: Drug uptake in anesthetized cynomolgus monkey brain thalamus after 65 mins postinjection; format: ADME, organism-based, Macaca fascicularis; set-up: unit not given here; conditions: in vivo
[17] = Drug uptake in anesthetized cynomolgus monkey brain occipital lobe after 225 mins postinjection; format: ADME, organism-based, Macaca fascicularis; conditions: in vivo, 3.75 h
[18] = Drug uptake in anesthetized cynomolgus monkey brain occipital lobe after 45 mins postinjection; format: ADME, organism-based, Macaca fascicularis; conditions: in vivo, 0.75 h
Thalamus [19] = assay: Drug uptake in anesthetized cynomolgus monkey brain thalamus after 165 mins postinjection; format: ADME, organism-based, Macaca fascicularis; set-up: unit not given here; conditions: in vivo, 2.75 h
[20] = Drug uptake in anesthetized cynomolgus monkey brain frontal lobe after 235 mins postinjection; format: ADME, organism-based, Macaca fascicularis; conditions: in vivo
[21] = Drug uptake in anesthetized cynomolgus monkey brain frontal lobe after 175 mins postinjection; format: ADME, organism-based, Macaca fascicularis; conditions: in vivo
[22] = Ratio of drug uptake in caudate to cerebellum in anesthetized cynomolgus monkey after 55 mins postinjection; format: ADME, organism-based, Macaca fascicularis; conditions: in vivo
Medulla [23] = assay: Drug uptake in anesthetized cynomolgus monkey brain medulla after 95 mins postinjection; format: ADME, organism-based, Macaca fascicularis; conditions: in vivo
[24] = Ratio of drug uptake in occipital lobe to cerebellum in anesthetized cynomolgus monkey after 105 mins postinjection; format: ADME, organism-based, Macaca fascicularis; conditions: in vivo, 1.75 h
Caudate [25] = assay: Drug uptake in anesthetized cynomolgus monkey brain caudate after 145 mins postinjection; format: ADME, organism-based, Macaca fascicularis, Caudate nucleus; conditions: in vivo
Thalamus [26] = assay: Drug uptake in anesthetized cynomolgus monkey brain thalamus after 215 mins postinjection; format: ADME, organism-based, Macaca fascicularis; set-up: unit not given here; conditions: in vivo
Midbrain [27] = assay: Drug uptake in anesthetized cynomolgus monkey brain midbrain after 215 mins postinjection; format: ADME, organism-based, Macaca fascicularis; conditions: in vivo
[28] = Ratio of drug uptake in occipital lobe to cerebellum in anesthetized cynomolgus monkey after 235 mins postinjection; format: ADME, organism-based, Macaca fascicularis; conditions: in vivo
Putamen [29] = assay: Drug uptake in anesthetized cynomolgus monkey brain putamen after 3.5 mins postinjection; format: ADME, organism-based, Macaca fascicularis; conditions: in vivo
Putamen [30] = assay: Drug uptake in anesthetized cynomolgus monkey brain putamen after 85 mins postinjection; format: ADME, organism-based, Macaca fascicularis; set-up: unit not given here; conditions: in vivo
[31] = Ratio of drug uptake in putamen to cerebellum in anesthetized cynomolgus monkey after 165 mins postinjection; format: ADME, organism-based, Macaca fascicularis; conditions: in vivo, 2.75 h
[32] = Ratio of drug uptake in midbrain to cerebellum in anesthetized cynomolgus monkey after 215 mins postinjection; format: ADME, organism-based, Macaca fascicularis; conditions: in vivo
Pons [33] = assay: Drug uptake in anesthetized cynomolgus monkey brain pons after 6.5 mins postinjection; format: ADME, organism-based, Macaca fascicularis; conditions: in vivo
[34] = Ratio of drug uptake in putamen to cerebellum in anesthetized cynomolgus monkey after 0.5 mins postinjection; format: ADME, organism-based, Macaca fascicularis; conditions: in vivo
Medulla [35] = assay: Drug uptake in anesthetized cynomolgus monkey brain medulla after 105 mins postinjection; format: ADME, organism-based, Macaca fascicularis; conditions: in vivo, 1.75 h
Pons [36] = assay: Drug uptake in anesthetized cynomolgus monkey brain pons after 18.5 mins postinjection; format: ADME, organism-based, Macaca fascicularis; conditions: in vivo
Midbrain [37] = assay: Drug uptake in anesthetized cynomolgus monkey brain midbrain after 0.5 mins postinjection; format: ADME, organism-based, Macaca fascicularis; set-up: unit not given here; conditions: in vivo
Putamen [38] = assay: Drug uptake in anesthetized cynomolgus monkey brain putamen after 135 mins postinjection; format: ADME, organism-based, Macaca fascicularis; conditions: in vivo, 2.25 h
[39] = Ratio of drug uptake in caudate to cerebellum in anesthetized cynomolgus monkey after 135 mins postinjection; format: ADME, organism-based, Macaca fascicularis; conditions: in vivo, 2.25 h
[40] = Ratio of drug uptake in occipital lobe to cerebellum in anesthetized cynomolgus monkey after 135 mins postinjection; format: ADME, organism-based, Macaca fascicularis; conditions: in vivo, 2.25 h
[41] = Ratio of drug uptake in frontal lobe to cerebellum in anesthetized cynomolgus monkey after 35 mins postinjection; format: ADME, organism-based, Macaca fascicularis; conditions: in vivo
Medulla [42] = assay: Drug uptake in anesthetized cynomolgus monkey brain medulla after 22.5 mins postinjection; format: ADME, organism-based, Macaca fascicularis; conditions: in vivo, 0.375 h
Caudate [43] = assay: Drug uptake in anesthetized cynomolgus monkey brain caudate after 115 mins postinjection; format: ADME, organism-based, Macaca fascicularis, Caudate nucleus; conditions: in vivo
[44] = Drug uptake in anesthetized cynomolgus monkey brain occipital lobe after 125 mins postinjection; format: ADME, organism-based, Macaca fascicularis; conditions: in vivo
Medulla [45] = assay: Drug uptake in anesthetized cynomolgus monkey brain medulla after 9.5 mins postinjection; format: ADME, organism-based, Macaca fascicularis; conditions: in vivo
Midbrain [46] = assay: Drug uptake in anesthetized cynomolgus monkey brain midbrain after 6.5 mins postinjection; format: ADME, organism-based, Macaca fascicularis; set-up: unit not given here; conditions: in vivo
[47] = Drug uptake in anesthetized cynomolgus monkey brain cerebellum after 27.5 mins postinjection; format: ADME, organism-based, Macaca fascicularis; conditions: in vivo
[48] = Ratio of drug uptake in caudate to cerebellum in anesthetized cynomolgus monkey after 155 mins postinjection; format: ADME, organism-based, Macaca fascicularis; conditions: in vivo
[49] = Ratio of drug uptake in midbrain to cerebellum in anesthetized cynomolgus monkey after 225 mins postinjection; format: ADME, organism-based, Macaca fascicularis; conditions: in vivo, 3.75 h
[50] = Drug uptake in anesthetized cynomolgus monkey brain occipital lobe after 135 mins postinjection; format: ADME, organism-based, Macaca fascicularis; conditions: in vivo, 2.25 h
[51] = Drug uptake in anesthetized cynomolgus monkey brain frontal lobe after 12.5 mins postinjection; format: ADME, organism-based, Macaca fascicularis; conditions: in vivo
Pons [52] = assay: Drug uptake in anesthetized cynomolgus monkey brain pons after 105 mins postinjection; format: ADME, organism-based, Macaca fascicularis; conditions: in vivo, 1.75 h
Caudate [53] = assay: Drug uptake in anesthetized cynomolgus monkey brain caudate after 45 mins postinjection; format: ADME, organism-based, Macaca fascicularis, Caudate nucleus; conditions: in vivo, 0.75 h
[54] = Drug uptake in anesthetized cynomolgus monkey brain occipital lobe after 205 mins postinjection; format: ADME, organism-based, Macaca fascicularis; conditions: in vivo
Medulla [55] = assay: Drug uptake in anesthetized cynomolgus monkey brain medulla after 6.5 mins postinjection; format: ADME, organism-based, Macaca fascicularis; conditions: in vivo
Putamen [56] = assay: Drug uptake in anesthetized cynomolgus monkey brain putamen after 22.5 mins postinjection; format: ADME, organism-based, Macaca fascicularis; set-up: unit not given here; conditions: in vivo, 0.375 h
Putamen [57] = assay: Drug uptake in anesthetized cynomolgus monkey brain putamen after 4.5 mins postinjection; format: ADME, organism-based, Macaca fascicularis; set-up: unit not given here; conditions: in vivo, 0.075 h
Caudate [58] = assay: Drug uptake in anesthetized cynomolgus monkey brain caudate after 35 mins postinjection; format: ADME, organism-based, Macaca fascicularis, Caudate nucleus; conditions: in vivo
Medulla [59] = assay: Drug uptake in anesthetized cynomolgus monkey brain medulla after 3.5 mins postinjection; format: ADME, organism-based, Macaca fascicularis; conditions: in vivo
Medulla [60] = assay: Drug uptake in anesthetized cynomolgus monkey brain medulla after 215 mins postinjection; format: ADME, organism-based, Macaca fascicularis; conditions: in vivo
[61] = Drug uptake in anesthetized cynomolgus monkey brain cerebellum after 95 mins postinjection; format: ADME, organism-based, Macaca fascicularis; conditions: in vivo
[62] = Ratio of drug uptake in medulla to cerebellum in anesthetized cynomolgus monkey after 195 mins postinjection; format: ADME, organism-based, Macaca fascicularis; conditions: in vivo, 3.25 h
Medulla [63] = assay: Drug uptake in anesthetized cynomolgus monkey brain medulla after 135 mins postinjection; format: ADME, organism-based, Macaca fascicularis; conditions: in vivo, 2.25 h
Caudate [64] = assay: Drug uptake in anesthetized cynomolgus monkey brain caudate after 18.5 mins postinjection; format: ADME, organism-based, Macaca fascicularis, Caudate nucleus; conditions: in vivo
Midbrain [65] = assay: Drug uptake in anesthetized cynomolgus monkey brain midbrain after 145 mins postinjection; format: ADME, organism-based, Macaca fascicularis; conditions: in vivo
Pons [66] = assay: Drug uptake in anesthetized cynomolgus monkey brain pons after 12.5 mins postinjection; format: ADME, organism-based, Macaca fascicularis; conditions: in vivo
Putamen [67] = assay: Drug uptake in anesthetized cynomolgus monkey brain putamen after 155 mins postinjection; format: ADME, organism-based, Macaca fascicularis; conditions: in vivo
[68] = Ratio of drug uptake in midbrain to cerebellum in anesthetized cynomolgus monkey after 9.5 mins postinjection; format: ADME, organism-based, Macaca fascicularis; conditions: in vivo

O=C(OCC[18F])C1C2CCC(CC1c1cccc(/C=C\Br)c1)N2 (stereo not drawn)
Drug uptake [1]: 3.84
Drug uptake [2]: 0
Drug uptake (Medulla [3]): 4.87
Drug uptake (Thalamus [4]): 2.44
Drug uptake (Midbrain [5]): 4.06
Drug uptake (Midbrain [6]): 4.78
Drug uptake (Midbrain [7]): 4.91
Drug uptake (Caudate [8]): 2.53
Drug uptake [9]: 2.18
Drug uptake (Caudate [10]): 2.89
Drug uptake [11]: 3.14
Ratio [12]: 0.5
Drug uptake (Putamen [13]): 3.42
Drug uptake [14]: 3.28
Drug uptake (Putamen [15]): 4.05
Drug uptake (Thalamus [16]): 4.51
Drug uptake [17]: 1.95
Drug uptake [18]: 3.55
Drug uptake (Thalamus [19]): 3.64
Drug uptake [20]: 1.87
Drug uptake [21]: 2.19
Ratio [22]: 1.1
Drug uptake (Medulla [23]): 4.55
Ratio [24]: 1.1
Drug uptake (Caudate [25]): 3.52
Drug uptake (Thalamus [26]): 2.92
Drug uptake (Midbrain [27]): 3.76
Ratio [28]: 1.2
Drug uptake (Putamen [29]): 1
Drug uptake (Putamen [30]): 4.94
Ratio [31]: 1.8
Ratio [32]: 2.1
Drug uptake (Pons [33]): 2.79
Ratio [34]: 1.3
Drug uptake (Medulla [35]): 4.31
Drug uptake (Pons [36]): 4.13
Drug uptake (Midbrain [37]): 0.01
Drug uptake (Putamen [38]): 4.4
Ratio [39]: 1.5
Ratio [40]: 1.1
Ratio [41]: 0.7
Drug uptake (Medulla [42]): 4.7
Drug uptake (Caudate [43]): 4.06
Drug uptake [44]: 3.07
Drug uptake (Medulla [45]): 3.76
Drug uptake (Midbrain [46]): 2.99
Drug uptake [47]: 3.8
Ratio [48]: 1.6
Ratio [49]: 2.3
Drug uptake [50]: 2.78
Drug uptake [51]: 2.27
Drug uptake (Pons [52]): 4.34
Drug uptake (Caudate [53]): 3.83
Drug uptake [54]: 2.28
Drug uptake (Medulla [55]): 3.64
Drug uptake (Putamen [56]): 4.33
Drug uptake (Putamen [57]): 1.72
Drug uptake (Caudate [58]): 3.56
Drug uptake (Medulla [59]): 1.26
Drug uptake (Medulla [60]): 3.04
Drug uptake [61]: 3.05
Ratio [62]: 1.9
Drug uptake (Medulla [63]): 4.21
Drug uptake (Caudate [64]): 2.8
Drug uptake (Midbrain [65]): 4.65
Drug uptake (Pons [66]): 3.52
Drug uptake (Putamen [67]): 4.01
Ratio [68]: 1.1

Reference: ChEMBL document CHEMBL1151757, “Synthesis, radiosynthesis, and biological evaluation of fluorine-18-labeled 2beta-carbo(fluoroalkoxy)-3beta-(3'-((Z)-2-haloethenyl)phenyl)nortropanes: candidate radioligands for in vivo imaging of the serotonin transporter with positron emission tomography” (J Med Chem, 2008)
